From patent US20230151025A1, “SUBSTITUTED THIAZOLOPYRIDINES, SALTS THEREOF AND THEIR USE AS HERBICIDALLY ACTIVE SUBSTANCES” (Bayer Aktiengesellschaft, priority 2020, published 2023)

How the values were obtained:
Format in all cases: in vivo
[1] = test system: Setaria viridis (SETVI); experiment: Herbicidal pre-emergence action (A), 1280 g/ha; details: visual grading after ca. 3 weeks vs untreated controls
Outline: (§1)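 Visual percent damage scored about 3 weeks after treatment relative to untreated pots (100% = complete kill, 0% = no effect). Compounds, as wettable powder or emulsifiable concentrate plus 0.5% additive in 600 l water/ha, were applied to the soil surface over freshly sown seeds in sandy loam, greenhouse-grown.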

[2] = test system: Poa annua (POAAN); experiment: Herbicidal pre-emergence action (A), 1280 g/ha; details: visual grading after ca. 3 weeks vs untreated controls, 100% = plants have died off, 0% = as control plants
Outline: as §1

[3] = test system: Abutilon theophrasti (ABUTH); experiment: Herbicidal post-emergence action (B), 1280 g/ha; details: rated visually after about 3 weeks vs untreated controls
Outline: (§2)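 Compounds formulated as wettable powder or emulsion concentrate, with 0.5% additive, sprayed at 600 l/ha onto one-leaf-stage plants grown in sandy loam for 2 to 3 weeks. Damage rated visually against untreated plants roughly 3 weeks later; 0% = like control, 100% = plants died.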

[4] = test system: Veronica persica (VERPE); experiment: Herbicidal post-emergence action (B), 1280 g/ha
Outline: as §2

[5] = test system: Stellaria media (STEME); experiment: Herbicidal post-emergence action (B), 1280 g/ha
Outline: as §2

[6] = test system: Matricaria inodora (MATIN); experiment: Herbicidal post-emergence action (B), 1280 g/ha; details: rated visually after about 3 weeks vs untreated controls
Outline: as §2

[7] = test system: Amaranthus retroflexus (AMARE); experiment: Herbicidal post-emergence action (B), 1280 g/ha; details: rated visually after about 3 weeks vs untreated controls
Outline: as §2

[8] = test system: Digitaria sanguinalis (DIGSA); experiment: Herbicidal post-emergence action (B), 1280 g/ha; details: rated visually after about 3 weeks vs untreated controls
Outline: as §2

[9] = test system: Kochia scoparia (KCHSC; Bassia scoparia); experiment: Herbicidal post-emergence action (B), 1280 g/ha
Outline: as §2

[10] = test system: Stellaria media (STEME); experiment: Herbicidal pre-emergence action (A), 1280 g/ha; details: visual grading after ca. 3 weeks vs untreated controls
Outline: as §1

[11] = test system: Alopecurus myosuroides (ALOMY); experiment: Herbicidal pre-emergence action (C), 320 g/ha; details: ca. 3 weeks
Text: (§3) ABUTH: Abutilon theophrasti AGSTE: Agrostis tenuis ALOMY: Alopecurus myosuroides AMARE Amaranthus retroflexus DIGSA: Digitaria sanguinalis ECHCG: Echinochloa crus-galli KCHSC: Kochia scoparia LOLRI: Lolium rigidum MATIN: Matricaria inodora POAAN: Poa annua POLCO: Polygonum convolvulus SETVI: Setaria viridis STEME: Stellaria media VERPE: Veronica persica VIOTR: Viola tricolor
(§4) Seeds of mono- and dicotyledonous weed plants and crop plants were sown, in plastic or organic planting pots, in sandy loam and covered with soil. The compounds according to the invention, formulated in the form of wettable powders (WP) or as emulsifiable concentrates (EC), were applied to the surface of the covering soil as aqueous suspension or emulsion, with the addition of 0.5% of an additive, at an application rate of 600 l of water/ha (converted).
(§5) Following treatment, the pots were placed in a greenhouse and kept under optimum growth conditions for the test plants. The visual grading of the damage to the test plants was carried out after ca. 3 weeks in comparison to untreated controls (herbicidal effect in percent (%): 100% effect=plants have died off, 0% effect=as control plants).
(§6) Tables C1 to C13 below show the effects of selected compounds of the general formula (I) according to table 1 on various harmful plants and an application rate corresponding to 320 g/ha obtained by the experimental procedure mentioned above.

[12] = test system: Echinochloa crus-galli (ECHCG); experiment: Herbicidal pre-emergence action (C), 320 g/ha; details: ca. 3 weeks
Text: as §3, §4, §5, §6

[13] = test system: Veronica persica (VERPE); experiment: Herbicidal pre-emergence action (A), 1280 g/ha; details: visual grading after ca. 3 weeks vs untreated controls
Outline: as §1

[14] = test system: Alopecurus myosuroides (ALOMY); experiment: Herbicidal pre-emergence action (A), 1280 g/ha; details: visual grading after ca. 3 weeks vs untreated controls, 100% = plants have died off, 0% = as control plants
Outline: as §1

[15] = test system: Matricaria inodora (MATIN); experiment: Herbicidal pre-emergence action (A), 1280 g/ha; details: visual grading after ca. 3 weeks vs untreated controls
Outline: as §1

[16] = test system: Amaranthus retroflexus (AMARE); experiment: Herbicidal pre-emergence action (A), 1280 g/ha; details: visual grading after ca. 3 weeks vs untreated controls
Outline: as §1

[17] = test system: Echinochloa crus-galli (ECHCG); experiment: Herbicidal pre-emergence action (A), 1280 g/ha; details: visual grading after ca. 3 weeks vs untreated controls, 100% = plants have died off, 0% = as control plants
Outline: as §1

[18] = test system: Kochia scoparia (KCHSC; Bassia scoparia); experiment: Herbicidal pre-emergence action (A), 1280 g/ha; details: visual grading after ca. 3 weeks vs untreated controls
Outline: as §1

[19] = test system: Lolium rigidum (LOLRI); experiment: Herbicidal pre-emergence action (A), 1280 g/ha; details: visual grading after ca. 3 weeks vs untreated controls, 100% = plants have died off, 0% = as control plants
Outline: as §1

[20] = test system: Alopecurus myosuroides (ALOMY); experiment: Herbicidal post-emergence action (D), 320 g/ha; details: ca. 3 weeks
Text: as §3
(§7) Seeds of mono- and dicotyledonous weed plants and crop plants were sown, in plastic or organic planting pots, in sandy loam, covered with soil and grown in a greenhouse under controlled growth conditions. 2 to 3 weeks after sowing, the test plants were sprayed in the single-leaf stage. The compounds according to the invention, formulated in form of wettable powders (WP) or as emulsifiable concentrates (EC), were sprayed onto the green plant parts as aqueous suspension or emulsion, with the addition of 0.5% of an additive, at an application rate of 600 l of water/ha (converted). The test plants were placed in the greenhouse for ca. 3 weeks under optimum growth conditions, and then the effect of the preparations was assessed visually in comparison with untreated controls (herbicidal effect in percent (%): 100% effect=plants have died off, 0% effect=as control plants).
(§8) Tables D1 to D13 below show the effects of selected compounds of the general formula (I) according to table 1 on various harmful plants and an application rate corresponding to 320 g/ha obtained by the experimental procedure mentioned above.

[21] = test system: Echinochloa crus-galli (ECHCG); experiment: Herbicidal post-emergence action (D), 320 g/ha; details: ca. 3 weeks
Text: as §3, §7, §8

[22] = test system: Alopecurus myosuroides (ALOMY); experiment: Herbicidal post-emergence action (B), 1280 g/ha; details: rated visually after about 3 weeks vs untreated controls
Outline: as §2

[23] = test system: Echinochloa crus-galli (ECHCG); experiment: Herbicidal post-emergence action (B), 1280 g/ha; details: rated visually after about 3 weeks vs untreated controls
Outline: as §2

[24] = test system: Poa annua (POAAN); experiment: Herbicidal post-emergence action (B), 1280 g/ha; details: rated visually after about 3 weeks vs untreated controls
Outline: as §2

[25] = test system: Digitaria sanguinalis (DIGSA); experiment: Herbicidal pre-emergence action (A), 1280 g/ha; details: visual grading after ca. 3 weeks vs untreated controls, 100% = plants have died off, 0% = as control plants
Outline: as §1

[26] = test system: Veronica persica (VERPE); experiment: Herbicidal post-emergence action (D), 320 g/ha; details: ca. 3 weeks
Text: as §3, §7, §8

[27] = test system: Setaria viridis (SETVI); experiment: Herbicidal pre-emergence action (C), 320 g/ha; details: ca. 3 weeks
Text: as §3, §4, §5, §6

[28] = test system: Lolium rigidum (LOLRI); experiment: Herbicidal pre-emergence action (C), 320 g/ha; details: ca. 3 weeks
Text: as §3, §4, §5, §6

[29] = test system: Polygonum convolvulus (POLCO); experiment: Herbicidal post-emergence action (D), 320 g/ha; details: ca. 3 weeks
Text: as §3, §7, §8

[30] = test system: Setaria viridis (SETVI); experiment: Herbicidal post-emergence action (D), 320 g/ha; details: ca. 3 weeks
Text: as §3, §7, §8

[31] = test system: Setaria viridis (SETVI); experiment: Herbicidal post-emergence action (B), 1280 g/ha; details: rated visually after about 3 weeks vs untreated controls
Outline: as §2

[32] = test system: Veronica persica (VERPE); experiment: Herbicidal pre-emergence action (C), 320 g/ha; details: ca. 3 weeks
Text: as §3, §4, §5, §6

[33] = test system: Amaranthus retroflexus (AMARE); experiment: Herbicidal pre-emergence action (C), 320 g/ha; details: ca. 3 weeks
Text: as §3, §4, §5, §6

[34] = test system: Amaranthus retroflexus (AMARE); experiment: Herbicidal post-emergence action (D), 320 g/ha; details: ca. 3 weeks
Text: as §3, §7, §8

Compound | herbicidal effect SETVI [1] | POAAN, herbicidal effect in percent (%) [2] | herbicidal effect VERPE [4] | herbicidal effect STEME [5] | herbicidal activity MATIN [6] | herbicidal activity AMARE [7] | herbicidal activity DIGSA [8] | herbicidal effect KCHSC [9] | herbicidal effect STEME [10] | herbicidal effect ALOMY [11] | herbicidal effect ECHCG [12] | herbicidal effect VERPE [13] | ALOMY, herbicidal effect in percent (%) [14] | herbicidal effect MATIN [15] | herbicidal effect AMARE [16] | ECHCG, herbicidal effect in percent (%) [17] | herbicidal effect KCHSC [18] | LOLRI, herbicidal effect in percent (%) [19] | herbicidal activity ECHCG [23] | herbicidal activity POAAN [24] | further results
COc1ccccc1-c1nc2nc(SC)sc2cc1C [Example I-007] | 100% | 90% | 90% | 100% | 100% | 100% | 100% | 90% | – | – | – | – | – | – | – | – | – | – | – | – | herbicidal activity ABUTH [3]: 90%
CCc1cc2sc([S+](C)[O-])nc2nc1-c1ccccc1C (centres unmarked) [Example I-022] | – | – | – | – | 90% | 100% | – | 90% | 90% | – | – | – | – | – | – | – | – | – | – | – | –
Clc1cc2scnc2nc1-c1ccsc1 [Example I-191] | 100% | 100% | 100% | 90% | 90% | – | – | 90% | 100% | 90% | 100% | 100% | 100% | 90% | 90% | 100% | 90% | 100% | 100% | 100% | herbicidal effect ALOMY [20]: 80%; herbicidal effect ECHCG [21]: 90%; herbicidal activity ABUTH [3]: 90%; herbicidal activity ALOMY [22]: 100%
CCc1cc2scnc2nc1-c1ccccc1OC [Example I-111] | 100% | 100% | 90% | 90% | – | 100% | 100% | 100% | 100% | – | – | 90% | 90% | 90% | 90% | 100% | 100% | 100% | – | 100% | DIGSA, herbicidal effect in percent (%) [25]: 100%; herbicidal effect VERPE [26]: 80%
CCCc1cc2scnc2nc1-c1ccccc1F [Example I-185] | – | 100% | 90% | – | – | 100% | – | 90% | 90% | 90% | 100% | 90% | – | 90% | – | 100% | 90% | 100% | 90% | – | herbicidal effect SETVI [27]: 100%; herbicidal effect LOLRI [28]: 100%; herbicidal effect VERPE [26]: 90%; herbicidal effect POLCO [29]: 80%; herbicidal effect ECHCG [21]: 80%; herbicidal effect SETVI [30]: 90%; herbicidal activity SETVI [31]: 90%
CCc1cc2sc(S)nc2nc1-c1ccccc1C [Example I-158] | – | – | 90% | – | 100% | 90% | – | – | 90% | – | – | – | – | – | 90% | 100% | – | – | – | 100% | –
Cc1cc2sc(S(C)(=O)=O)nc2nc1-c1ccccc1F [Example I-021] | 100% | 100% | – | – | 100% | 90% | – | 100% | 100% | – | – | 90% | – | – | 100% | – | 90% | 100% | – | 100% | –
Fc1cccc(-c2ccc3scnc3n2)c1 [Example I-118] | 100% | 100% | 90% | – | 100% | 90% | – | – | 100% | – | – | – | – | 90% | 90% | – | – | 100% | – | 100% | DIGSA, herbicidal effect in percent (%) [25]: 100%
C=Cc1cc2scnc2nc1-c1ccccc1F [Example I-072] | 100% | 100% | 100% | 90% | 90% | 100% | 90% | 90% | 90% | 100% | 100% | 100% | 100% | 100% | 100% | 100% | 100% | 100% | 90% | 100% | herbicidal effect VERPE [32]: 80%; herbicidal effect AMARE [33]: 80%; herbicidal effect SETVI [27]: 100%; herbicidal effect LOLRI [28]: 100%; DIGSA, herbicidal effect in percent (%) [25]: 100%; herbicidal effect POLCO [29]: 80%; herbicidal effect AMARE [34]: 80%; herbicidal activity ALOMY [22]: 100%; herbicidal activity SETVI [31]: 90%
